Paper PMC4406947, “CALM Regulates Clathrin-Coated Vesicle Size and Maturation by Directly Sensing and Driving Membrane Curvature” (Developmental Cell, 2015)

Experiments:
[1] = target: T1, CALM ANTH(ΔH0) (Homo sapiens, UniProt Q13492); experiment: liposome-based SPR (BIAcore […]); format: binding; details: PtdIns4,5P2-containing liposomes, not free lipid; 170 mM salt
T1 construct: gene PICALM; recombinant ANTH domain lacking the N-terminal amphipathic helix AH0 (residues 1-18); construct details in supplement; clone could be rat Picalm
T1 sequence (Q13492 19-289): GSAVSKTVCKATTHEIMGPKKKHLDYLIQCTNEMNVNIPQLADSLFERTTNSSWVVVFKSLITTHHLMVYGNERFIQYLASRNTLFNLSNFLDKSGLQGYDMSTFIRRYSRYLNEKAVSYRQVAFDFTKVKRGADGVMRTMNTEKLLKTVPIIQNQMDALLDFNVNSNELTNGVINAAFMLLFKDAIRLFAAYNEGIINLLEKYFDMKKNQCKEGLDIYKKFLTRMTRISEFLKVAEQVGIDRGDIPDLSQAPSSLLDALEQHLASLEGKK

[2] = target: T2, CALM ANTH (CALM ANTH-WT); experiment: liposome-based SPR (BIAcore […]); format: binding, Homo sapiens; details: PtdIns4,5P2-containing liposomes, not free lipid; 170 mM salt
T2 construct: gene PICALM; recombinant N-terminal ANTH domain including AH0, first 289 residues; construct details in supplement; clone could be rat Picalm (earlier ANTH constructs of this group)

Question: PtdIns4,5P2 was tested. Which Kd [1] did it give?
Answer: 11.5 ± 1.1 µM

Question: And the Kd [2]?
Answer: 1.5 µM
